One series has as its system CHO-K1 cells. Nature of the series: Optical microscope images of cells after red light irradiation. To be noted: ALA treated CHO-K1 cells after 30 J/cm^2 red light (630 nm) irradiation; FIG. 9B. The class given is cell-based, Chinese Hamster.
Series [1] relates to CHO-K1 (Chinese Hamster Ovarian Cancer, ATCC, CRL-2243) cell line. Nature of the series: Conversion of ALA to protoporphyrin IX (PpIX) in cells, fluorescence emission. To be noted: ALA 1 mM and 2 mM, about 16 hrs at 37° C.; fluorescence emission at 635 nm. The format is cell-based.
The test system is the same in series [2]. Nature of the series: Efficacy study: ALA plus red OLED light, MTT cell viability. The class given is cell-based. Conditions: ALA about 1 mM or higher, 16 hrs incubation, OLED light (630 nm) dose of 30 J/cm^2, FIG. 10.
The nature of series [3]: Solubility observed on isolation. The format is physicochemical. Here is the method: 6,6′-di(benzo[d]thiazol-2-yl)-3,3′-bipyridine (17). A mixture of 9 (0.591 g, 2.03 mmol), 16 (0.700 g, 2.07 mmol), tetrakis(triphenylphosphine)palladium(0) (117 mg, 102 μmol), Na2CO3 (1.59 g, 15.0 mmol), H2O (15 mL) and THF (25 mL) was degassed with argon for about 20 min while stirring. The stirring reaction mixture was then maintained under argon at about 80° C. for about 19 h. Upon completion, the mixture was cooled to RT, filtered and the precipitate collected as a white solid (0.83 g, 97%).
2-(6′-(benzo[d]thiazol-2-yl)-3,3′-bipyridin-6-yl)benzo[d]oxazole (18). Following the procedure for 17, 11 (0.558 g, 2.03 mmol), 16 (0.700 g, 2.07 mmol),), tetrakis(triphenylphosphine)palladium(0) (117 mg, 102 μmol), Na2CO3 (1.59 g, 15.0 mmol), H2O (15 mL) and THF (25 mL) yielded an insoluble white solid (0.70 g, 84%) after filtration.

Series [4] concerns presumed ocular histoplasmosis. Further details: species or system person. To be noted: in vivo, iv.
The test system of another series is pathological myopia. Nature of the series: Phototherapy of pathological myopia with red light emitting OLED. To be noted: about 6 mg/m^2 intravenously; retina illuminated about 15 minutes after start of infusion. The class given is in vivo, person.
Series [5] deals with age-related macular degeneration. The experiment in a line: Phototherapy of age-related macular degeneration with red light emitting OLED. The class given is in vivo, person. Conditions: about 6 mg/m^2 intravenously; retina illuminated about 15 minutes after start of infusion.

A value given as a limit tells only on which side of the number the result lay.

For `NCC(=O)CCC(=O)O` [ALA, 5-aminolevulinic acid], the “cell morphology / cell death by optical microscope” value with CHO-K1 cells was “significant cell death”. In series [1], the “generation of PpIX” value is “confirmed”. Besides, the cell death in series [2] is given as not below 90%.
For the molecule `c1ccc2sc(-c3ccc(-c4ccc(-c5nc6ccccc6s5)nc4)cn3)nc2c1` [Compound 17, 6,6′-di(benzo[d]thiazol-2-yl)-3,3′-bipyridine], the solubility result in series [3] is recorded as “insoluble in numerous common organic solvents”.
As for `c1ccc2oc(-c3ccc(-c4ccc(-c5nc6ccccc6s5)nc4)cn3)nc2c1` [Compound 18, 2-(6′-(benzo[d]thiazol-2-yl)-3,3′-bipyridin-6-yl)benzo[d]oxazole], the solubility result in series [3] is “insoluble”.
Consider `C=Cc1c(C)c2cc3nc(cc4[nH]c(cc5nc(cc1[nH]2)C(C)=C5CCC(=O)O)c(CCC(=O)OC)c4C)[C@@]1(C)C3=CC=C(C(=O)OC)[C@H]1C(=O)OC` [Verteporphin], for which the “patient's vision” value (in series [4]; in the series with pathological myopia; in series [5]) was “anticipated to be stabilized” throughout.

Values taken from patent publication US20120179089A1, “SUBSTITUTED BIPYRIDINES FOR USE IN ORGANIC LIGHT-EMITTING DEVICES” (Nitto Denko Corporation, priority 2010, published 2012).
